Measured values taken from patent US10813930B2, “Substituted imidazopyridazines and benzimidazoles as inhibitors of FGFR3” (Incyte Corporation, priority 2010, dated 2020).

These molecules were tested against FGFR3 enzyme (Millipore) (Homo sapiens (Human), UniProt P22607) (assay: FGFR3 Enzymatic Assay (peptide phosphorylation, FRET/HTRF)). Conditions: 140 μM ATP, 25° C. 1 hr.
Type: biochemical
Description: FGFR3 Enzymatic Assay The inhibitor potency of compounds of the invention was measured in an enzyme assay that measures peptide phosphorylation using FRET measurements to detect product formation. Inhibitors were serially diluted in DMSO and a volume of 0.5 μL was transferred to the wells of a 384-well plate. A 10 μL volume of FGFR3 enzyme (Millipore) diluted in assay buffer (50 mM HEPES, 10 mM MgCl2, 1 mM EGTA, 0.01% Tween-20, 5 mM DTT, pH 7.5) was added to the plate and pre-incubated for 5-10 minutes. Appropriate controls (enzyme blank and enzyme with no inhibitor) were included on the plate. […] The plate was incubated at 25° C. for 1 hr. […] The plate was allowed to equilibrate for ˜1 hr before scanning the wells on a PheraStar plate reader.
GraphPad prism3 was used to analyze the data. The IC50 values were derived by fitting the data to the equation for a sigmoidal dose-response with a variable slope. Y=Bottom+(Top-Bottom)/(1+10^(Log IC50−X)*HillSlope)) where X is the logarithm of concentration and Y is the response.

Sequence of FGFR3 enzyme (Millipore) (P22607 23-806): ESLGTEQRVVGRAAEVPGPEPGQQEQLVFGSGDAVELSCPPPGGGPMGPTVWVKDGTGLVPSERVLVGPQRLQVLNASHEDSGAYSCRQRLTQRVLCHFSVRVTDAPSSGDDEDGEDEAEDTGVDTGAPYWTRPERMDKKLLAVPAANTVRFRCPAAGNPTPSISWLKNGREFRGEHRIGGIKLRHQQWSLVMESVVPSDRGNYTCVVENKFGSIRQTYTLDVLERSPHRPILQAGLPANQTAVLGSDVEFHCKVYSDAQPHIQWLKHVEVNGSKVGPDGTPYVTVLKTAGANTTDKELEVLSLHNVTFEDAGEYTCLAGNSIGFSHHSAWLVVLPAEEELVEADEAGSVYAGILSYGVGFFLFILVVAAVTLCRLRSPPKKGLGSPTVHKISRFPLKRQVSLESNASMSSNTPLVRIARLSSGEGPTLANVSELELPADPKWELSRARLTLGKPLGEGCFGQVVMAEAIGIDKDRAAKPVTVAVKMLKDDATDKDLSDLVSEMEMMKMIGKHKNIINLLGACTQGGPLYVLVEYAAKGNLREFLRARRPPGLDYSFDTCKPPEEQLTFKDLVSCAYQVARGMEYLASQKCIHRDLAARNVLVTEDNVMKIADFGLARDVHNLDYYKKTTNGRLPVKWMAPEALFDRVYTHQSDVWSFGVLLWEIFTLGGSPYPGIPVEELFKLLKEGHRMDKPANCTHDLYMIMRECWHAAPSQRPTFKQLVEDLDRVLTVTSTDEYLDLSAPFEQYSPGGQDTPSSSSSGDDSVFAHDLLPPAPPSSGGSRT

IC50, < 10 nM:
CC(O)CNC(=O)C(C)n1cc(-c2cnn3c(-c4cccc(NC(=O)NCC(F)(F)F)c4)cnc3c2)cn1 (stereo not shown) [Example 63, N-(2-Hydroxypropyl)-2-(4-{3-[3-({[(2,2,2-trifluoroethyl)amino]carbonyl}amino)phenyl]imidazo[1,2-b]pyridazin-7-yl}-1H-pyrazol-1-yl)propanamide]
CC(C(=O)N1CC(O)C1)n1cc(-c2cnn3c(-c4cccc(NC(=O)NCC(F)(F)F)c4)cnc3c2)cn1 (stereo not shown) [Example 64, N-[3-(7-{1-[2-(3-Hydroxyazetidin-1-yl)-1-methyl-2-oxoethyl]-1H-pyrazol-4-yl}imidazo[1,2-b]pyridazin-3-yl)phenyl]-N′-(2,2,2-trifluoroethyl)urea]
CC(C(=O)N1CCC(F)(F)C1)n1cc(-c2cnn3c(-c4cccc(NC(=O)NCC(F)(F)F)c4)cnc3c2)cn1 (stereo not shown) [Example 65, N-[3-(7-{1-[2-(3,3-Difluoropyrrolidin-1-yl)-1-methyl-2-oxoethyl]-1H-pyrazol-4-yl}imidazo[1,2-b]pyridazin-3-yl)phenyl]-N′-(2,2,2-trifluoroethyl)urea]
N#CCC(=O)N1CC(CC#N)(n2cc(-c3cnn4c(-c5cccc(NC(=O)NCC(F)(F)F)c5)cnc4c3)cn2)C1 [Example 77, N-[3-(7-{1-[1-(Cyanoacetyl)-3-(cyanomethyl)azetidin-3-yl]-1H-pyrazol-4-yl}imidazo[1,2-b]pyridazin-3-yl)phenyl]-N′-(2,2,2-trifluoroethyl)urea]
N#CCC1(n2cc(-c3cnn4c(-c5cccc(NC(=O)NCC(F)(F)F)c5)cnc4c3)cn2)CN(C(=O)CC2CC2)C1 [Example 78, N-[3-(7-{1-[3-(Cyanomethyl)-1-(cyclopropylacetyl)azetidin-3-yl]-1H-pyrazol-4-yl}imidazo[1,2-b]pyridazin-3-yl)phenyl]-N′-(2,2,2-trifluoroethyl)urea]
CC1(C(=O)N2CC(CC#N)(n3cc(-c4cnn5c(-c6cccc(NC(=O)NCC(F)(F)F)c6)cnc5c4)cn3)C2)CC1 [Example 79, N-{3-[7-(1-{3-(Cyanomethyl)-1-[(1-methylcyclopropyl)carbonyl]azetidin-3-yl}-1H-pyrazol-4-yl)imidazo[1,2-b]pyridazin-3-yl]phenyl}-N′-(2,2,2-trifluoroethyl)urea]
N#CCC1(n2cc(-c3cnn4c(-c5cccc(NC(=O)NCC(F)(F)F)c5)cnc4c3)cn2)CN(C(=O)C2(C#N)CC2)C1 [Example 80, N-[3-(7-{1-[1-[(1-Cyanocyclopropyl)carbonyl]-3-(cyanomethyl)azetidin-3-yl]-1H-pyrazol-4-yl}imidazo[1,2-b]pyridazin-3-yl)phenyl]-N′-(2,2,2-trifluoroethyl)urea]
N#CCC1(n2cc(-c3cnn4c(-c5cccc(NC(=O)NCC(F)(F)F)c5)cnc4c3)cn2)CN(C(=O)CC2CCCO2)C1 (stereo not shown) [Example 81, N-[3-(7-{1-[3-(Cyanomethyl)-1-(tetrahydrofuran-2-ylacetyl)azetidin-3-yl]-1H-pyrazol-4-yl}imidazo[1,2-b]pyridazin-3-yl)phenyl]-N′-(2,2,2-trifluoroethyl)urea]
N#CCC1(n2cc(-c3cnn4c(-c5cccc(NC(=O)NCC(F)(F)F)c5)cnc4c3)cn2)CN(C(=O)C2CCOC2)C1 (stereo not shown) [Example 82, N-[3-(7-{1-[3-(Cyanomethyl)-1-(tetrahydrofuran-3-ylcarbonyl)azetidin-3-yl]-1H-pyrazol-4-yl}imidazo[1,2-b]pyridazin-3-yl)phenyl]-N′-(2,2,2-trifluoroethyl)urea]
N#CCC1(n2cc(-c3cnn4c(-c5cccc(NC(=O)NCC(F)(F)F)c5)cnc4c3)cn2)CN(C(=O)N2CCOCC2)C1 [Example 85, N-[3-(7-{1-[3-(Cyanomethyl)-1-(morpholin-4-ylcarbonyl)azetidin-3-yl]-1H-pyrazol-4-yl}imidazo[1,2-b]pyridazin-3-yl)phenyl]-N′-(2,2,2-trifluoroethyl)urea]
N#CCC1(n2cc(-c3cnn4c(-c5cccc(NC(=O)NCC(F)(F)F)c5)cnc4c3)cn2)CN(C(=O)N2CCCC2)C1 [Example 86, N-[3-(7-{1-[3-(Cyanomethyl)-1-(pyrrolidin-1-ylcarbonyl)azetidin-3-yl]-1H-pyrazol-4-yl}imidazo[1,2-b]pyridazin-3-yl)phenyl]-N′-(2,2,2-trifluoroethyl)u rea]
N#CCC1(n2cc(-c3cnn4c(-c5cccc(NC(=O)NCC(F)(F)F)c5)cnc4c3)cn2)CN(C(=O)NCC2CC2)C1 [Example 87, 3-(Cyanomethyl)-N-(cyclopropylmethyl)-3-(4-{3-[3-({[(2,2,2-trifluoroethyl)amino]carbonyl}amino)phenyl]imidazo[1,2-b]pyridazin-7-yl}-1H-pyrazol-1-yl)azetidine-1-carboxamide]
N#CCC1(n2cc(-c3cnn4c(-c5cccc(NC(=O)NCC(F)(F)F)c5)cnc4c3)cn2)CN(C(=O)OCC2CC2)C1 [Example 88, Cyclopropylmethyl 3-(cyanomethyl)-3-(4-{3-[3-({[(2,2,2-trifluoroethyl)amino]carbonyl}amino)phenyl]imidazo[1,2-b]pyridazin-7-yl}-1H-pyrazol-1-yl)azetidine-1-carboxylate]
